Test results as given in US9358281B2, “Methods, agents and peptides for inducing an innate immune response in HIV vaccination” (New York University, priority 2009, dated 2016).

Tested on: monocyte-derived dendritic cells (MDDC)
Type: cell-based, human
Details: added during the first 24 hours

Compound	effect on transduction efficiency
Cc1nnc(C(=O)NC(C)(C)c2nc(C(=O)NCc3ccc(F)cc3)c(O)c(=O)n2C)o1 [RAL, Raltegravir]	inhibited transduction efficiency
Cc1cn([C@H]2C[C@H](N=[N+]=[N-])[C@@H](CO)O2)c(=O)[nH]c1=O [AZT, Zidovudine]	inhibited transduction efficiency
